In patent EP0108147B1, “Use of a protoberberine alkaloid and composition containing same” (MAROKO, Peter R., priority 1982, dated 1983):

Legend:
[1] = test system: canine; experiment: Effect of berberine after intravenous propanolol, 12 canine experiments; format: in vivo; settings: intravenous propanolol (1 mg/kg)
Text: The mechanism of berberine is dissimilar to that of beta-adrenergic agonists, which while increasing contractility, increase heart rate also. […] Berberine differs also from digitalis because it reduces peripheral resistance in the non-failing heart.

[2] = test system: dogs; experiment: Supraventricular arrhythmias by topical application of aconitine to the atria; format: in vivo; settings: intraveneous bolus 1-5 mg/Kg; aconitine (0.04%) solution
[3] = test system: NaK-ATPase; settings: Cohen et al., Biochem. Pharmacol. 27: 2555-2558, 1978; cited from earlier work
[4] = Solubility; format: physicochemical
Procedure: The solubility of berberine and other similar compounds of the invention may be altered by changing the pH of the solution having each compound its optimum of pH as far as solubility.
The protoberine alkaloids are administered in the manner most appropriate under the circumstances. Administration may be oral, sublingual, subcutaneous, transdermal or intramuscular injection. The compounds may be administered by intravenous route, parenterally.

[5] = LD50; settings: cat, in vivo
[6] = test system: dogs; experiment: Lethal dose, repetitive intravenous boluses; settings: repetitive intravenous boluses within 4 hours
[7] = test system: trained conscious dogs; experiment: Protocol F: multiple gated radionuclide ventriculography (MUGR), ejection fraction in conscious dogs without failing heart; format: in vivo
Procedure: To determine further the effects of berberine on patients, experiments were carried out on conscious dogs (Protocol F) and the measurement of left ventricular performance was assessed atraumatically using the multiple gated radionuclide ventriculography (MUGR) similarly to what is done in patients. The multiple gated radionuclide ventriculography is used in patients to assess their cardiac (i.e. left ventricular) performance by analyzing in an. atraumatic manner, the ejection fraction (EF) of the left ventricle. This technique substituted the analysis of ejection fraction by contrast angiography since the latter can be done only in the catheterization laboratory with the patient submitted to the introduction of catheters into his arteries and left ventricular cavity as well as an injection of a radio-opaque dye. MUGR consists in using red blood cells labelled with stannous radioactive technetium. These red blod cells can be labelled either in vivo or in vitro prior to injection. The blood that is now emitting gamma radiation can be detected by an external gamma camera. This device can sum many cycles of the heart beat obtaining an average cycle. Then this cycle is divided in time intervals so that, as an example, the end systolic and the end diastolic frames can be identified. Ejection fraction is the end distolic minus the end systolic volumes divided by the end diastolic volume. It indicates therefore the pumping effectiveness of the left ventricle since it measures the fraction (or the percent if multiplied by 100) of the volume of blood that is expelled from the left ventricular cavity. Experiments were carried out in trained conscious dogs. 14.8.108 Bg (40 mCi) of […] used to label red blood cells that were then injected intravenously. […] The images were acquired using fixed density of the left ventricle. They were measured in quadruplicate and averaged. The external gamma camera used was Ohio Nuclear (model VIP 560).

[8] = test system: dogs with acute left ventricular failure; experiment: MUGR ejection fraction in dogs with acute left ventricular failure after coronary embolization; format: in vivo; settings: for EF: 0.2 mg/Kg/min
Procedure: Nevertheless, to verify the response of dogs with acute heart failure with this sophisticated technique, this condition was provoked by previous embolization into the left coronary artery (as described below in protocol HV). thereafter, the effect of berberine infusion was analyzed after embolization. […] Berberine was infused in a rate of 0.2 mg/Kg/min for 30 minutes and MUGR was repeated after 2, 15, 22 and 28 minutes of infusion.
Six dogs were studied using this technique (Table XV). […] The thirty minute infusion of berberine (0.2 mg/Kg/min) was administered. During this period four radionuclide ventriculographies were obtained and averaged. After discontinuation of the infusion again four radionuclide ventriculographies were obtained in the next thirty minutes and averaged.

[9] = test system: dogs; experiment: Three week toxicology study in 12 dogs; format: in vivo; settings: 0.2 mg/kg/min for 60 minutes twice daily for 3 weeks
[10] = test system: dogs; experiment: Protocol RK: systemic arterial pressure and heart rate, pressure not held constant, two doses; format: in vivo
Text: The protocol was the same as described above except that in these dogs, contrary to the previously reported series, the systolic arterial pressure was not maintained constant. Also, the dogs were instrumented only with an electrocardiogram (with lead aVF being constantly recorded), and polyethylene cannula in aorta introduced through the carotid artery to measure aortic pressures, and another cannula in the jugular vein for drug administration. Average heart rate (measured by continuously monitored electrocardiographic lead aVF) was reduced from 146 ± 4 (mean ± 1 S.E.M.) to […] (p <0.1) after the first 45 minutes. After the second 45 minutes heart beat rate was further reduced to […] (p <0.01 ).

[11] = Microneucleus test with Ames test on urine for mutagenic potential
[12] = test system: dogs with acute left ventricular failure; experiment: MUGR ejection fraction in dogs with acute left ventricular failure after coronary embolization; format: in vivo; settings: another dog, 0.2 mg/Kg/min
[13] = test system: dogs; experiment: Arrhythmias produced by intravenous infusion of aconitine; format: in vivo
Procedure: To examine the effects of berberine on arrhythmias produced by intravenous infusion of aconitine in fifteen dogs after development of VEA, of at least 50% of the beats or more, the dogs were given berberine intravenously as a bolus (1-5 mg/Kg) or 5% dextrose in water.

[14] = test system: chronically instrumented conscious dogs; experiment: Oral administration in chronically instrumented conscious dogs; format: in vivo
[15] = second dog (Figure VI), after 15 minutes

COc1ccc2cc3[n+](cc2c1OC)CCc1cc2c(cc1-3)OCO2 [berberine]
effect on contractility, arterial pressure or heart rate after beta blockade [1]: did not change the effect of berberine | atrial ectopic beats, atrial tachycardia or atrial fibrillation [2]: effective in abolishing these arrhythmias | inhibition of NaK-ATPase activity [3]: inactive | solubility as a function of pH [4]: increases when pH is lowered towards acidity | solubility in sugar solutions [4]: soluble (among others) in sugar solutions | LD50 [5]: ~55 mg/kg | average dose resulting in death due to arterial systemic hypotension [6]: 120 mg/kg | ejection fraction (EF), average ([7]; one dog, after first infusion): 44 ± 2% | ejection fraction (EF), average ([7]; one dog, after second infusion): 40 ± 2% | increase of EF versus the pre-berberine period ([7]; one dog, first infusion): 33% | ejection fraction (EF) ([7]; one dog, first infusion 0.7 mg/Kg/min 5 minutes, 1st reading (5 min), pre-berberine 33 ± 2): 46% | ejection fraction (EF) ([7]; one dog, first infusion, 2nd reading (15 min)): 47% | ejection fraction (EF) ([7]; one dog, first infusion, 3rd reading (30 min)): 44% | ejection fraction (EF) ([7]; one dog, first infusion, 4th reading (45 min)): 38% | ejection fraction (EF) ([7]; one dog, second infusion, 1st reading): 46% | ejection fraction (EF) ([7]; one dog, second infusion, 2nd reading): 37% | ejection fraction (EF) ([7]; one dog, second infusion, 3rd reading): 40% | ejection fraction (EF) ([7]; one dog, second infusion, 4th reading): 38% | ejection fraction ([7]; second dog (Figure VI), 0.7 mg/Kg/min for 15 minutes, 1st reading, from 50): 54% | ejection fraction ([7]; second dog (Figure VI), 2nd reading): 65% | ejection fraction [7, 15]: 70% | increase of ejection fraction [7, 15]: 40% | EF ([8]; another dog, at 2, 39 after embolization): 60% | EF ([8]; another dog, at 15): 62% | EF ([8]; one dog, 2 minutes of infusion, 27 after embolization): 35% | EF ([8]; one dog, 15 minutes): 37% | EF ([8]; one dog, 22 minutes): 39% | EF ([8]; one dog, 28 minutes): 38% | increase of EF ([8]; six dogs): ~50% | left ventricular ejection fraction (EF) ([8]; six dogs, during 30 minute infusion 0.2 mg/Kg/min, from 27 ± 3): 40 ± 3% | EF after the discontinuation of infusion ([8]; six dogs, next half an hour): continued to be significantly elevated | side effects (electrolytes, heptatic function, renal function, proteins, coagulation, blood cells, platelet count) [9]: no side effects were observed | tissues at post-mortem [9]: normal histologically | mean pressure ([10]; after 90 minutes, from 114 ± 7): 96 ± 5 mmHg | pulse pressure (systolic minus diastolic pressure) ([10]; end of the experiment, from an average of 28): 35 mmHg | Mean systemic arterial pressure ([10]; first dose, 5 minutes, from 114 ± 7): 87 ± 5 mmHg | Mean systemic arterial pressure ([10]; first dose, 10 minutes): 93 ± 4 mmHg | Mean systemic arterial pressure ([10]; first dose, 15 minutes): 92 ± 5 mmHg | Mean systemic arterial pressure ([10]; first dose, 30 minutes): 101 ± 7 mmHg | Mean systemic arterial pressure ([10]; first dose, 45 minutes): 101 ± 7 mmHg | Mean systemic arterial pressure ([10]; second dose, 5 minutes): 94 ± 4 mmHg | Mean systemic arterial pressure ([10]; second dose, 10 minutes): 95 ± 6 mmHg | Mean systemic arterial pressure ([10]; second dose, 15 minutes): 95 ± 5 mmHg | Mean systemic arterial pressure ([10]; second dose, 30 minutes): 97 ± 5 mmHg | Mean systemic arterial pressure ([10]; second dose, 45 minutes): 97 ± 5 mmHg | mutagenic potential [11]: negative | EF ([12]; at 20): 55% | EF ([12]; at 30): 55% | dogs with regression of the arrhythmias to normal sinus or supraventricular rhythm ([13]; intravenous bolus 1-5 mg/Kg after VEA of at least 50% of the beats, controls 20%): 78% | ventricular fibrillation ([13]; two cases): ventricular fibrillation reverted to normal sinus rhythm

COc1cc2c(cc1O)C[C@H]1c3cc(O)c(OC)cc3CCN1C2 [coreximine]
oral effects compared with berberine ([14]; dog, in vivo, po): more marked than those of berberine | increase of LV dP/dt ([14]; oral 5 mg/kg twice daily, after the first day): 25%
